Measurements published in US9301963B2, “Treatment tool and method of gradual withdrawal from bezodiazepine dependency” (priority 2011, dated 2016).

What was measured:
[1] = Solvent / liquid delivery medium in which the benzo is soluble
[2] = test system: benzodiazepine-dependent patient; experiment: Gradual liquid micro-taper withdrawal from benzodiazepine dependency in patients; conditions: for daily dosage at which withdrawal symptoms once again emerge during the taper: patients tapered at the found daily reduction rate, typical value
[3] = test system: CYP 450 enzymes; conditions: cited from earlier work
[4] = test system: benzodiazepine-dependent patient; experiment: Step taper method (comparison, FIG. 3); conditions: step taper abruptly halted at 0.5 mg

**Q.** For `Cc1nnc2n1-c1ccc(Cl)cc1C(c1ccccc1)=NC2` [Alprazolam], which correct solvent [1] is on record?
**A.** Its correct solvent is “ethanol”.

**Q.** With `CNC1=Nc2ccc(Cl)cc2C(c2ccccc2)=[N+]([O-])C1` [Chlordiazepoxide] as the compound, how does the “daily dosage at which withdrawal symptoms once again emerge during the taper” value [2] read?
**A.** Its value is about 12.5 mg.

**Q.** For `O=C1CN=C(c2ccccc2Cl)c2cc([N+](=O)[O-])ccc2N1` [Clonazepam], which half-life [3] is on record?
**A.** The half-life was “relatively long half-life”.

**Q.** What about the metabolites [3] of the same compound?
**A.** Its metabolites is “no active metabolites”.

**Q.** And the “suitability of fat/water emulsion as liquid in which the benzo is soluble” value ([1]; 4% fat homogenized milk)?
**A.** Its value is “suitable”.

**Q.** And the “daily dosage at which withdrawal symptoms once again emerge during the taper” value [2]?
**A.** The value was about 0.25 mg.

**Q.** For `CN1C(=O)CN=C(c2ccccc2)c2cc(Cl)ccc21` [Diazepam], which “post withdrawal syndrome after step taper” value [4] is on record?
**A.** Its value is “causes the feared post withdrawal syndrome”.

**Q.** What about the “amount of ethanol to create a useable solution” value ([1]; ethanol) of the same compound?
**A.** The value was “about 0.19 mL ethanol per 1.0 mg”.

**Q.** And the “daily dosage cut that is often the limit” value ([2]; daily reduction, increased gradually from 0.05 mg)?
**A.** Its value is 0.1 mg.

**Q.** And the “post withdrawal syndrome after taper” value ([2]; method of the patent, line 310, taper to zero milligrams)?
**A.** Its value is “eliminates the post withdrawal syndrome”.

**Q.** What about the “symptom escalation during taper (FIG. 3)” value ([2]; patient on 14.0 mg starting dose, method of the patent, line 310) of the same compound?
**A.** Its value is “no symptom escalation from dosage reduction”.

**Q.** What about the “daily dosage at which withdrawal symptoms once again emerge during the taper” value [2] of the same compound?
**A.** Its value is about 5.0 mg.

**Q.** With `O=C1Nc2ccc(Cl)cc2C(c2ccccc2Cl)=NC1O` (centres unmarked) [Lorazepam] as the compound, how does the “metabolism by CYP 450 enzyme pathways” value [3] read?
**A.** The value was “not metabolized by the CYP 450 enzyme pathways”.

**Q.** With `O=C1Nc2ccc(Cl)cc2C(c2ccccc2)=NC1O` (centres unmarked) [Oxazepam] as the compound, how does the “metabolism by CYP 450 enzyme pathways” value [3] read?
**A.** Its value is “not metabolized by the CYP 450 enzyme pathways”.
